The values below come from US9387249B2, “Methods of treating hypertension with at least one angiotensin II receptor blocker and chlorthalidone” (Takeda Pharmaceutical Company Limited, priority 2008, dated 2016).

Holding throughout (assay type): in vivo, human
Series [1] relates to patients with stage 2 hypertension. The series is described as follows: Phase 3 randomized double-blind study: safety (adverse events, laboratory tests). The source says:
More specifically, as will be discussed in more detail below, the purpose of this study is evaluate the change in 24-hour mean systolic blood pressure (SBP) by ambulatory blood pressure monitoring (ABPM) in response to (5-methyl-2-oxo-1,3-dioxol-4-yl)methyl 2-ethoxy-1-{[2′-(5-oxo-4,5-dihydro-1,2,4-oxadiazol-3-yl)biphenyl-4-yl]methyl}-1H-benzimidazole-7-carboxylate potassium salt plus chlorthalidone compared to placebo plus chlorthalidone for 6 weeks in subjects with uncontrolled essential hypertension. Subjects that qualify for the studied will be discontinued from their current antihypertensive medication. After a 2-week run-in-period, subjects who meet the entry criteria will be given (5-methyl-2-oxo-1,3-dioxol-4-yl)methyl 2-ethoxy-1-{[2′-(5-oxo-4,5-dihydro-1,2,4-oxadiazol-3-yl)biphenyl-4-yl]methyl}-1H-benzimidazole-7-carboxylate potassium salt plus chlorthalidone or placebo plus chlorthalidone once daily for 6 weeks. Blood pressure will be monitored during study visits and ABPM will be used to evaluate blood pressure for 24-hour periods twice during the study. Subjects will receive physical examinations including measurement of vital signs and blood and urine samples will be collected (for analyses related to safety monitoring during study visits). […]

For series [2] the test system is unchanged. The series is described as follows: Phase 3 randomized double-blind study: change in clinic SBP. To be noted: chlorthalidone plus placebo once daily. How it is done: (§1) This is a phase 3, multi-center, randomized, parallel group, double-blind, placebo-controlled, study to evaluate the efficacy and safety of (5-methyl-2-oxo-1,3-dioxol-4-yl)methyl 2-ethoxy-1-{[2′-(5-oxo-4,5-dihydro-1,2,4-oxadiazol-3-yl)biphenyl-4-yl]methyl}-1H-benzimidazole-7-carboxylate potassium salt when combined with chlorthalidone 25 mg once daily (QD) in subjects with uncontrolled essential hypertension.
(§2) More specifically, as will be discussed in more detail below, the purpose of this study is evaluate the change in 24-hour mean systolic blood pressure (SBP) by ambulatory blood pressure monitoring (ABPM) in response to (5-methyl-2-oxo-1,3-dioxol-4-yl)methyl 2-ethoxy-1-{[2′-(5-oxo-4,5-dihydro-1,2,4-oxadiazol-3-yl)biphenyl-4-yl]methyl}-1H-benzimidazole-7-carboxylate potassium salt plus chlorthalidone compared to placebo plus chlorthalidone for 6 weeks in subjects with uncontrolled essential hypertension. Subjects that qualify for the studied will be discontinued from their current antihypertensive medication. […] Blood pressure will be monitored during study visits and ABPM will be used to evaluate blood pressure for 24-hour periods twice during the study. […]

Series [3] shares this test system. Nature of the series: Phase 3 randomized double-blind study: change from baseline in 24-hour mean SBP by ambulatory blood pressure monitoring (ABPM). The following applies: Chlorthalidone 25 mg + placebo once daily, oral, 6 weeks. How it is done: as §1, §2

Consider `CCOc1nc2cccc(C(=O)OCc3oc(=O)oc3C)c2n1Cc1ccc(-c2ccccc2-c2noc(=O)[nH]2)cc1.[K]` [Azilsartan medoxomil, (5-methyl-2-oxo-1,3-dioxol-4-yl)methyl 2-ethoxy-1-{[2′-(5-oxo-4,5-dihydro-1,2,4-oxadiazol-3-yl)biphenyl-4-yl]methyl}-1H-benzimidazole-7-carboxylate potassium salt], for which the “Effect on the hypokalemia seen with chlorthalidone alone” value in series [1] (azilsartan medoxomil added to chlorthalidone) was “attenuated the hypokalemia”.

Consider `NS(=O)(=O)c1cc(C2(O)NC(=O)c3ccccc32)ccc1Cl` (stereo not shown) [Chlorthalidone, 2-chloro-5-(1-hydroxy-3-oxo-1,2-dihydroisoindol-1-yl)-benzenesulfonamide], for which, in series [2], the “Absolute reduction in clinic SBP” value is −21.8 mm Hg. The “Δ from baseline, mean, Absolute, Mean 24-Hour SBP by ABPM” value in series [3] is listed as −15.9 mm Hg. For the same molecule, the “Hypokalemia, frequency” value in series [1] (chlorthalidone plus placebo compared with chlorthalidone plus azilsartan medoxomil) is “more frequent”.
